Reference: patent publication US20060074061A1, “Formulations of glucocorticoids to treat pathologic ocular angiogenesis” (priority 2003, published 2006)

Assay: Topical anecortave acetate in patients with glucocorticoid induced ocular hypertension (IOP)
Assay type: in vivo, human
Settings: patients (n=15) with glucocorticoid induced ocular hypertension; 1% eye drops topically three times per day for up to 12 weeks; glucocorticoid medication continued; IOP before treatment 29 mm Hg; significantly reduced
Protocol: Patients (η=15) with documented glucocorticoid induced ocular hypertension were treated topically with 1% anecortave acetate eye drops three times per day for up to 12 weeks. The patients continued to receive their glucocorticoid medication.

With `CC(=O)OCC(=O)[C@@]1(O)CC[C@H]2[C@@H]3CCC4=CC(=O)CC[C@]4(C)C3=CC[C@@]21C` [anecortave acetate, 4,9(11)-pregnadien-17α,21-diol-3,20dione-21-acetate] as the compound, how does the “IOP after anecortave acetate treatment” value read?
The value was 19-22 mm Hg.
